Here are results for 38 molecules from patent US10532018B2, “Method of whitening skin using tranexamic acid-peptide having skin whitening activity” (ANPEP INC., priority 2016, dated 2020).

The subject of one data set is B16F1 cells. Nature of the data set: Screening of tranexamic acid-peptides: intracellular melanin production in α-MSH-treated melanocytes. In kind it is cell-based, mouse. The following applies: α-MSH 20 μg/mL, 3 days, intracellular melanin at 490 nm; Control (No Treatment) = 100; test concentration not stated (1-250 μg/mL tested). As to the method:
B16F1 cells, which are mouse melanocytes, were cultured in Dulbecco's modified Eagle's media (DMEM, Sigma), to which 10% fetal bovine serum (FBS, Sigma) was added, under 37° C. CO2 conditions. The cells were cultured in a 24-well plate at a concentration of 1×10^5 cells/well, and the attachment of cells was confirmed. Then, the control group was not treated with anything but only a solvent was added thereto, whereas a-MSH (20 μg/mL) was added to the positive control group. The remaining dishes were treated with α-MSH (20 μg/mL), 40 kinds of tranexamic acid-peptides, and the control group with Arbutin and AA2G, to a concentration of 1 μg/mL, 10 μg/mL, 100 μg/mL, and 250 μg/mL, respectively. Test materials were added to each dish and cultured for 3 days. After 3 days, the culture was removed by centrifugation, and the cells were lysed and intracellular melanin was collected, and observed at 490 nm to measure the amount of intracellular melanin production.
40 kinds of tranexamic acid-peptides were treated according to concentration, and their inhibitory effect against melanin production was measured.

For data set [1], the system named is skin pigmentation (melanin index). Nature of the data set: Clinical test of creams: skin pigmentation by Mexameter. Particulars: 2 times a day. In kind it is in vivo, human. The source says:
In particular, a cream containing tranexamic acid was used as the positive control group and the standard base cream was used as the negative control group.
The face of each subject was divided into two parts vertically and the two kinds of creams prepared above were applied to each face. The subjects were required to continuously use the creams in the morning and evening, 2 times a day for 8 weeks after washing the face.
For the objective evaluation of changes in skin pigmentation before and after the use of the creams, the changes in pigmentation were measured using the Mexameter (CK, Germany) before the use of the creams, 2 weeks, 4 weeks, 6 weeks, and 8 weeks after the use of the creams.
As a result of the above experiment, the tranexamic acid-dipeptide with a greater effect between the two kinds of tranexamic acid-dipeptides, was selected and, as an attempt to reduce the content in the cream, a cream containing 0.5% tranexamic acid-dipeptide was prepared. Ten women subjects were collected and the 8-week clinical experiment was performed in the same manner as described above.

The subject of another data set is mouse melanocytes. Nature of the data set: Whitening effect: melanin production in α-MSH-treated melanocytes by visual inspection. In kind it is cell-based. The following applies: images of melanocytes, similar concentrations, 3 days. On the procedure:
According to a preferred embodiment of the present invention, the peptides of the present invention […] the melanin production in a concentration-dependent manner. […] Additionally, when cells were treated with 4 kinds of the tranexamic acid-peptides; the peptides, to which tranexamic acid was not bound; Arbutin; and AA2G at various concentrations (1μ, 10μ, 100μ, and 250μ), cultured for 3 days, and the absorbance of the cultures were measured at 490 nm and analyzed.
Tranexamic acid-peptides were treated according to concentration and their inhibitory effect against melanin production was measured. The mouse melanocytes were cultured in Dulbecco's modified Eagle's media (DMEM, Sigma) containing 10% fetal bovine serum ([…], Sigma) under 37° C. CO2 conditions.
The cells were cultured in a 24-well plate at a concentration of 1×10^5 cells/well, and the attachment of cells was confirmed. Then, the control group was not treated with anything but only a solvent was added thereto, whereas a-MSH ([…]) was added to the positive control group. The remaining dishes were treated with α-MSH (20 μg/mL), 4 kinds of tranexamic acid-peptides, and the control group with Arbutin and AA2G, to a concentration of 1 μg/mL, 10 μg/mL, 100 μg/mL, and 250μ), respectively. Test materials were added to each dish and cultured for 3 days. […]

For the molecule Tranexamil-NT [Dipeptide-40 NT], the “α-MSH Inhibitory Ability (%)” value in the data set with B16F1 cells was found to be 84%. Turning to Tranexamil-CC [Dipeptide-12 CC], in the data set with B16F1 cells, the “α-MSH Inhibitory Ability (%)” value came to 83%. As to `NC[C@H]1CC[C@H](C(=O)O)CC1` [TXA, tranexamic acid], the “decrease of the melanin index after 8 weeks” value in data set [1] (54 women, creams with 1% tranexamic acid-dipeptide or tranexamic acid) stood at 11.4%; in data set [1] (ten women, cream with 0.5% tranexamic acid-dipeptide or tranexamic acid), 10.2%. The “α-MSH Inhibitory Ability (%)” value with B16F1 cells amounted to 45%. For the molecule Tranexamil-ET [Dipeptide-38 ET], the “α-MSH Inhibitory Ability (%)” value in the data set with B16F1 cells came out at 52%. As for Tranexamil-GP [Dipeptide-4 GP], the “α-MSH Inhibitory Ability (%)” value with B16F1 cells came out at 80%. Still for that read-out and setting: for Tranexamil-GH [Dipeptide-9 GH] the value was 70%; for Tranexamil-VP [Dipeptide-25 VP], 69%. The same measure, in the same setting: for Tranexamil-WE [Dipeptide-15 WE] the value was 78%; for Tranexamil-SS [Dipeptide-19 SS], 80%; for Tranexamil-SA [Dipeptide-13 SA], 81%. Turning to Tranexamil-MY [Dipeptide-8 MY], the “α-MSH Inhibitory Ability (%)” value in the data set with B16F1 cells is 78%. The same measure, in the same setting: the same measure for Tranexamil-ES [Dipeptide-5 ES]: 80%. For the molecule Tranexamil-HA [Dipeptide-28 HA], in the data set with B16F1 cells, the “α-MSH Inhibitory Ability (%)” value stood at 87%. The same measure, in the same setting: the same measure for Tranexamil-NA [Dipeptide-17 NA]: 79%; for Tranexamil-PP [Dipeptide-35 PP]: 85%. The same measure, in the same setting: the same measure for Tranexamil-GK [Dipeptide-29 GK]: 96%. Consider Tranexamil-KV [Dipeptide-30 KV], for which the “α-MSH Inhibitory Ability (%)” value in the data set with B16F1 cells was 83%. Take `OC[C@H]1O[C@@H](Oc2ccc(O)cc2)[C@H](O)[C@@H](O)[C@@H]1O` [Arbutin]: the “cell number compared to α-MSH treatment” value in the data set on mouse melanocytes was “rapidly decreased”. On to Tranexamil-MA [Dipeptide-10 MA], for which the “α-MSH Inhibitory Ability (%)” value with B16F1 cells is 56%. On the same count and under the same terms, for Tranexamil-AS [Dipeptide-1 AS] the value was 98%. Regarding Tranexamil-SV [Dipeptide-37 SV], in the data set with B16F1 cells, the “α-MSH Inhibitory Ability (%)” value turned out to be 64%. On to Tranexamil-KD [Dipeptide-16 KD], for which the “α-MSH Inhibitory Ability (%)” value in the data set with B16F1 cells was found to be 81%. As for Tranexamil-QG [Dipeptide-34 QG], the “α-MSH Inhibitory Ability (%)” value with B16F1 cells is on record as 85%. With Tranexamil-AA [Dipeptide-26 AA], in the data set on B16F1 cells, the “α-MSH Inhibitory Ability (%)” value amounted to 92%. Same read-out and setting: for Tranexamil-TA [Dipeptide-21 TA] the value was 76%; for Tranexamil-EC [Dipeptide-20 EC], 61%; for Tranexamil-VR [Dipeptide-36 VR], 70%.

With Tranexamil-PQ [Dipeptide-33 PQ], the “α-MSH Inhibitory Ability (%)” value in the data set with B16F1 cells was determined as 71%. On to Tranexamil-AR [Dipeptide-31 AR], for which the “α-MSH Inhibitory Ability (%)” value in the data set with B16F1 cells is given as 93%.

As for Tranexamil-KK [Dipeptide-6 KK], the “α-MSH Inhibitory Ability (%)” value in the data set on B16F1 cells was determined as 83%. Regarding Tranexamil-AT [Dipeptide-2 AT], in the data set on B16F1 cells, the “α-MSH Inhibitory Ability (%)” value stood at 88%. On the same count and under the same terms, the same measure for Tranexamil-RP [Dipeptide-32 RP]: 87%; for Tranexamil-CG [Dipeptide-39 CG]: 92%. Take Tranexamil-WA [Dipeptide-14 WA]: in the data set on B16F1 cells, the “α-MSH Inhibitory Ability (%)” value was 65%. The same measure, in the same setting: the same measure for Tranexamil-VV [Dipeptide-24 VV]: 72%. On the same count and under the same terms, the same measure for Tranexamil-AH [Dipeptide-11 AH]: 82%; for Tranexamil-TS [Dipeptide-18 TS]: 75%; for Tranexamil-PF [Dipeptide-22 PF]: 89%.
